{
  "source": "patent US12358960B2",
  "about": "“Selective targeting of ubiquitin- and ubiquitin-like E1-activating enzymes by structurally-stabilized peptides” (Dana-Farber Cancer Institute, Inc., priority 2019, dated 2025)",
  "molecular_target": "T1, UBA1 (Homo sapiens, UniProt P22314)",
  "T1 sequence (P22314 1-1058)": "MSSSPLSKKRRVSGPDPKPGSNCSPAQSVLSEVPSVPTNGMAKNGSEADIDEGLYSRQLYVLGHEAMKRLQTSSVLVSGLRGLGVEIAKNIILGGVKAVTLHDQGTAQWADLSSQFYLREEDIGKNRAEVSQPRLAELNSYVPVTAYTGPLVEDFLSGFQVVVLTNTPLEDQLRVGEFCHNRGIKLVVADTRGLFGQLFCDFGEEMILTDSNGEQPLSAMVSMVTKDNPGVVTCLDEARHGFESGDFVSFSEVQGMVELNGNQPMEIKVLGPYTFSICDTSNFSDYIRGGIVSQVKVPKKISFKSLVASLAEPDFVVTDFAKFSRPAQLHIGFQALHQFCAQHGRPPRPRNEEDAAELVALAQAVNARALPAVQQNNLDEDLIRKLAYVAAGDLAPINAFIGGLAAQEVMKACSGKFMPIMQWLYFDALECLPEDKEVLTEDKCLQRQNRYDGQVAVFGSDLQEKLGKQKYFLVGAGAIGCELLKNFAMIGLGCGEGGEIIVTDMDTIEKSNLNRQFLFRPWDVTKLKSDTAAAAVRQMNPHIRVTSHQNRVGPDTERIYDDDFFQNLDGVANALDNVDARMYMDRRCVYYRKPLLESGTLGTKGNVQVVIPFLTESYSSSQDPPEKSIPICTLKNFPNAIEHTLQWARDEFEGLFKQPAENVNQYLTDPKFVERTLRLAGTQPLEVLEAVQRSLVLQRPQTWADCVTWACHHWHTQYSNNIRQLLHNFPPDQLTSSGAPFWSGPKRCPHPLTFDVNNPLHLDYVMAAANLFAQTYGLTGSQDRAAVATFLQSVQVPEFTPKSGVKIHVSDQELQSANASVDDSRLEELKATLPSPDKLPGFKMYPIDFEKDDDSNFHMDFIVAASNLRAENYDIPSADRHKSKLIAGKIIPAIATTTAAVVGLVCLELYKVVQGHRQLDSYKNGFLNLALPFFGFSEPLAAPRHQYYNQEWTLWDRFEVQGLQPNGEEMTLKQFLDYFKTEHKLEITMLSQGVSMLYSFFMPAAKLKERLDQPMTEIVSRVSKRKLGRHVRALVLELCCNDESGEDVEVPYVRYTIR",
  "test": "Streptavidin-biotin pull-down with recombinant protein",
  "format": "binding",
  "conditions": "biotinylated peptide, silver stain",
  "description": "Streptavidin-biotin pull-down assays: For recombinant protein pull-downs, 10 pmol recombinant human UBA1 was incubated with 5 nmol C-terminally biotinylated SAH-UBE2A or DMSO vehicle control in a total volume of 1 mL binding buffer (50 mM NaCl, 20 mM HEPES, pH 7.4, 5 mM DTT) for 1.5 hours at 4° C. 30 μL of pre-equilibrated streptavidin agarose beads were then added and incubated for an additional 1.5 hours at 4° C. The beads were pelleted by centrifugation and washed three times with NP-40 buffer (20 mM HEPES, pH 7.4, 50 mM NaCl, 5 mM DTT, 0.5% [v/v] NP-40) before eluting the protein sample from the beads by heating at 70° C. for 10 min in 3×SDS loading buffer. Samples were subjected to electrophoresis and silver staining (Pierce 24612). […] Proteins were separated by SDS-PAGE gel electrophoresis and detected by western blot against UBE1 (Abcam ab34711). […] Conjugation of ubiquitin to E2 by E1 is monitored by conversion of free E2 (17 kDa) to E2˜ubiquitin conjugate (26 kDa). Quantitation of percent inhibition was calculated from densitometry of silver stain images. Error bars represent ±1 SEM calculated from three independent experiments.",
  "note": "Bridge positions count the residues as written; N and C are the ends. Square brackets hold non-standard residues; d marks the D form. Peptide text beside a SMILES is read from it. R8 = C=CCCCCCC[C@@](C)(N)C(=O)O; S5 = C=CCCC[C@](C)(N)C(=O)O; Nle = CCCC[C@H](N)C(=O)O",
  "data": [
    {"smiles": "CCCC[C@H](NC(C)=O)C(=O)N[C@@H](CO)C(=O)N[C@H](C(=O)N1CCC[C@H]1C(=O)N[C@]1(C)CCCCCCC=CCCC[C@@](C)(C(=O)N[C@@H](Cc2ccccc2)C(=O)N[C@@H](CCCCN)C(=O)N[C@@H](CCCNC(=N)N)C(=O)N[C@@H](CC(C)C)C(=O)N[C@@H](CCC(N)=O)C(N)=O)NC(=O)[C@H](CCCNC(=N)N)NC(=O)[C@H](CCCC)NC(=O)[C@H](CC(C)C)NC(=O)[C@H](CCCNC(=N)N)NC(=O)[C@H](CCCNC(=N)N)NC(=O)[C@H](CCCNC(=N)N)NC1=O)[C@@H](C)O", "note": "[SAH-UBE2A-11, BSTPX1RRRLBRX2FKRLQ] (Ac-[Nle]STP[R8]RRRL[Nle]R[S5]FKRLQ-NH2; staple 5-12)", "values": [
      {"measurement": "direct binding to recombinant UBA1, streptavidin capture", "value": "direct binding of SAH-UBE2A to UBA1"}
    ]}
  ]
}
